Species: Rattus norvegicus
Experiment: Open TG-GATES - Regimen: Single
Type: toxicity, organism-based, Sprague-Dawley
Parameters: regimen Single, gender Male, age 6 weeks
Details: in vivo, po, 0 mg/kg, route gavage, dose level Control; for APTT / Bas / Eos / Fbg / Hb / Ht / Lym / MCH / MCHC / MCV / Mono / Neu / PT / Plat / RBC / Ret / WBC: tissue Blood; for KIDNEY_L / KIDNEY_R / KIDNEY_TOTAL: tissue Kidney; for LIVER: tissue Liver; for A/G / ALP / ALT / AST / BUN / CRE / Ca / Cl / DBIL / GLC / IP / K / LDH / Na / PL / RALB / TBIL / TC / TG / TP / gamma-GTP: tissue Plasma

## CCC1(c2ccccc2)C(=O)NC(=O)NC1=O [PHENOBARBITAL]
3 h
  TERMINAL_BW: 221.7 g
  APTT: 19.3 s
  Bas: 0.4%
  Eos: 1%
  Fbg: 219.2 mg/dL
  Hb: 13.6 g/dL
  Ht: 37.5%
  Lym: 72.8%
  MCH: 21.7 pg
  MCHC: 36.1%
  MCV: 60.2 fL
  Mono: 3%
  Neu: 21.6%
  PT: 11.9 s
  Plat: 113.7 x10_4/uL
  RBC: 623.8 x10_4/ul
  Ret: 7.9%
  WBC: 110.8 x10_2/uL
  KIDNEY_L: 1.1 g
  KIDNEY_R: 1 g
  KIDNEY_TOTAL: 2.1 g
  LIVER: 10.2 g
  A/G: 1.6
  ALP: 939.8 IU/L
  ALT: 38.4 IU/L
  AST: 73.4 IU/L
  BUN: 10.8 mg/dL
  CRE: 0.4 mg/dL
  Ca: 10.6 mg/dL
  Cl: 103.4 meq/L
  DBIL: 0.068 mg/dL
  GLC: 203.2 mg/dL
  IP: 9.4 mg/dL
  K: 4.2 meq/L
  LDH: 162.6 IU/L
  Na: 141.6 meq/L
  PL: 140.4 mg/dL
  RALB: 3.3 g/dL
  TBIL: 0.1 mg/dL
  TC: 78 mg/dL
  TG: 55 mg/dL
  TP: 5.3 g/dL
  gamma-GTP: 0.8 IU/L
6 h
  TERMINAL_BW: 218.3 g
  APTT: 19 s
  Bas: 0.2%
  Eos: 1%
  Fbg: 227.8 mg/dL
  Hb: 14 g/dL
  Ht: 39.1%
  Lym: 73.6%
  MCH: 21.4 pg
  MCHC: 35.9%
  MCV: 59.5 fL
  Mono: 3.2%
  Neu: 21.4%
  PT: 12.2 s
  Plat: 119.4 x10_4/uL
  RBC: 656.8 x10_4/ul
  Ret: 8.1%
  WBC: 105 x10_2/uL
  KIDNEY_L: 1 g
  KIDNEY_R: 1 g
  KIDNEY_TOTAL: 2 g
  LIVER: 9.6 g
  A/G: 1.6
  ALP: 907.4 IU/L
  ALT: 34.4 IU/L
  AST: 70.2 IU/L
  BUN: 9.8 mg/dL
  CRE: 0.4 mg/dL
  Ca: 10.8 mg/dL
  Cl: 103.8 meq/L
  DBIL: 0.074 mg/dL
  GLC: 193.2 mg/dL
  IP: 9.3 mg/dL
  K: 4 meq/L
  LDH: 167.6 IU/L
  Na: 142 meq/L
  PL: 135.6 mg/dL
  RALB: 3.3 g/dL
  TBIL: 0.1 mg/dL
  TC: 73.8 mg/dL
  TG: 65.4 mg/dL
  TP: 5.4 g/dL
  gamma-GTP: 1 IU/L
9 h
  TERMINAL_BW: 217.1 g
  APTT: 19 s
  Bas: 0.4%
  Eos: 1.2%
  Fbg: 223.8 mg/dL
  Hb: 13.6 g/dL
  Ht: 37.9%
  Lym: 77%
  MCH: 21.5 pg
  MCHC: 36%
  MCV: 59.8 fL
  Mono: 2.8%
  Neu: 18%
  PT: 12.3 s
  Plat: 127.9 x10_4/uL
  RBC: 634.2 x10_4/ul
  Ret: 7.7%
  WBC: 93.6 x10_2/uL
  KIDNEY_L: 1 g
  KIDNEY_R: 1 g
  KIDNEY_TOTAL: 2 g
  LIVER: 9 g
  A/G: 1.6
  ALP: 763.4 IU/L
  ALT: 31.4 IU/L
  AST: 63.6 IU/L
  BUN: 9.4 mg/dL
  CRE: 0.3 mg/dL
  Ca: 10.6 mg/dL
  Cl: 103.8 meq/L
  DBIL: 0.062 mg/dL
  GLC: 202 mg/dL
  IP: 10.4 mg/dL
  K: 3.9 meq/L
  LDH: 122.2 IU/L
  Na: 142.2 meq/L
  PL: 129.8 mg/dL
  RALB: 3.4 g/dL
  TBIL: 0.1 mg/dL
  TC: 70.6 mg/dL
  TG: 35.4 mg/dL
  TP: 5.4 g/dL
  gamma-GTP: 1.2 IU/L
24 h
  TERMINAL_BW: 234.1 g
  APTT: 20.3 s
  Bas: 0.6%
  Eos: 1%
  Fbg: 221.2 mg/dL
  Hb: 13.4 g/dL
  Ht: 37.5%
  Lym: 77.6%
  MCH: 21 pg
  MCHC: 35.7%
  MCV: 58.9 fL
  Mono: 2.4%
  Neu: 18%
  PT: 11.7 s
  Plat: 132.6 x10_4/uL
  RBC: 637.2 x10_4/ul
  Ret: 7.4%
  WBC: 98.6 x10_2/uL
  KIDNEY_L: 1.1 g
  KIDNEY_R: 1.1 g
  KIDNEY_TOTAL: 2.2 g
  LIVER: 11.3 g
  A/G: 1.6
  ALP: 911.2 IU/L
  ALT: 35.8 IU/L
  AST: 70 IU/L
  BUN: 16.2 mg/dL
  CRE: 0.4 mg/dL
  Ca: 10.8 mg/dL
  Cl: 103.2 meq/L
  DBIL: 0.062 mg/dL
  GLC: 188.4 mg/dL
  IP: 7.6 mg/dL
  K: 4 meq/L
  LDH: 171.8 IU/L
  Na: 142 meq/L
  PL: 143 mg/dL
  RALB: 3.4 g/dL
  TBIL: 0.1 mg/dL
  TC: 72.2 mg/dL
  TG: 77.4 mg/dL
  TP: 5.6 g/dL
  gamma-GTP: 1.4 IU/L

Source: ChEMBL document CHEMBL3885861, “Open TG-GATES”
